Source: PubChem BioAssay (NCI)
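Following 48 hours of exposure in 96-well plates, responses at five concentrations were used to interpolate endpoints linearly. TGI is the concentration that stops growth completely.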

Tests used:
Assay in all cases: DTP human tumour cell line panel, 48 h
786-0 renal = tested on: 786-0 renal
A549 NSCLC = tested on: A549 NSCLC
ACHN renal = tested on: ACHN renal
BT-549 breast = tested on: BT-549 breast
CAKI-1 renal = tested on: CAKI-1 renal
CCRF-CEM leukemia = tested on: CCRF-CEM leukemia
COLO 205 colon = tested on: COLO 205 colon
DU-145 prostate = tested on: DU-145 prostate
EKVX NSCLC = tested on: EKVX NSCLC
HCC-2998 colon = tested on: HCC-2998 colon
HCT-116 colon = tested on: HCT-116 colon
HCT-15 colon = tested on: HCT-15 colon
HL-60(TB) leukemia = tested on: HL-60(TB) leukemia
HOP-62 NSCLC = tested on: HOP-62 NSCLC
HOP-92 NSCLC = tested on: HOP-92 NSCLC
HS 578T breast = tested on: HS 578T breast
HT29 colon = tested on: HT29 colon
IGROV1 ovarian = tested on: IGROV1 ovarian
K-562 leukemia = tested on: K-562 leukemia
KM12 colon = tested on: KM12 colon
LOX IMVI melanoma = tested on: LOX IMVI melanoma
M14 melanoma = tested on: M14 melanoma
MALME-3M melanoma = tested on: MALME-3M melanoma
MCF7 breast = tested on: MCF7 breast
MDA-MB-231 breast = tested on: MDA-MB-231 breast
MDA-MB-435 = tested on: MDA-MB-435
MDA-N = tested on: MDA-N
MOLT-4 leukemia = tested on: MOLT-4 leukemia
NCI-H226 lung = tested on: NCI-H226 lung
NCI-H23 lung = tested on: NCI-H23 lung
NCI-H460 lung = tested on: NCI-H460 lung
NCI-H522 lung = tested on: NCI-H522 lung
NCI/ADR-RES ovarian = tested on: NCI/ADR-RES ovarian
OVCAR-3 ovarian = tested on: OVCAR-3 ovarian
OVCAR-4 ovarian = tested on: OVCAR-4 ovarian
OVCAR-5 ovarian = tested on: OVCAR-5 ovarian
OVCAR-8 ovarian = tested on: OVCAR-8 ovarian
PC-3 prostate = tested on: PC-3 prostate
RPMI-8226 leukemia = tested on: RPMI-8226 leukemia
RXF 393 renal = tested on: RXF 393 renal
SF-268 CNS = tested on: SF-268 CNS
SF-295 CNS = tested on: SF-295 CNS
SF-539 CNS = tested on: SF-539 CNS
SK-MEL-2 melanoma = tested on: SK-MEL-2 melanoma
SK-MEL-28 melanoma = tested on: SK-MEL-28 melanoma
SK-MEL-5 melanoma = tested on: SK-MEL-5 melanoma
SK-OV-3 ovarian = tested on: SK-OV-3 ovarian
SN12C renal = tested on: SN12C renal
SNB-19 CNS = tested on: SNB-19 CNS
SNB-75 CNS = tested on: SNB-75 CNS
SR leukemia = tested on: SR leukemia
SW-620 colon = tested on: SW-620 colon
T-47D breast = tested on: T-47D breast
TK-10 renal = tested on: TK-10 renal
U251 CNS = tested on: U251 CNS
UACC-257 melanoma = tested on: UACC-257 melanoma
UACC-62 melanoma = tested on: UACC-62 melanoma
UO-31 renal = tested on: UO-31 renal

Question: With `CCCCC(=C=C1CCCCC1O)C1CCCN1C(=O)OC(C)(C)C` (stereo not drawn) as the molecule, how does the TGI (786-0 renal) read?
Answer: 29.6 µM

Question: And the TGI (A549 NSCLC)?
Answer: 29.3 µM

Question: And the TGI (ACHN renal)?
Answer: 29.2 µM

Question: And the TGI (BT-549 breast)?
Answer: 35.4 µM

Question: What about the TGI (CAKI-1 renal) of the same molecule?
Answer: 24.4 µM

Question: And the TGI (CCRF-CEM leukemia)?
Answer: 35 µM

Question: What about the TGI (COLO 205 colon) of the same molecule?
Answer: 43.8 µM

Question: What about the TGI (DU-145 prostate) of the same molecule?
Answer: 31.4 µM

Question: What about the TGI (EKVX NSCLC) of the same molecule?
Answer: 28.4 µM

Question: And the TGI (HCC-2998 colon)?
Answer: 36.6 µM

Question: And the TGI (HCT-116 colon)?
Answer: 27.3 µM

Question: And the TGI (HCT-15 colon)?
Answer: 32.3 µM

Question: And the TGI (HL-60(TB) leukemia)?
Answer: 25.5 µM

Question: And the TGI (HOP-62 NSCLC)?
Answer: 31.7 µM

Question: And the TGI (HOP-92 NSCLC)?
Answer: 26 µM

Question: And the TGI (HS 578T breast)?
Answer: 41 µM

Question: What about the TGI (HT29 colon) of the same molecule?
Answer: 27.3 µM

Question: What about the TGI (IGROV1 ovarian) of the same molecule?
Answer: 31.1 µM

Question: What about the TGI (K-562 leukemia) of the same molecule?
Answer: 34.1 µM

Question: What about the TGI (KM12 colon) of the same molecule?
Answer: 31.5 µM

Question: What about the TGI (LOX IMVI melanoma) of the same molecule?
Answer: 32.3 µM

Question: And the TGI (M14 melanoma)?
Answer: 30.9 µM

Question: And the TGI (MALME-3M melanoma)?
Answer: 31.6 µM

Question: And the TGI (MCF7 breast)?
Answer: 31.6 µM

Question: And the TGI (MDA-MB-231 breast)?
Answer: 30 µM

Question: What about the TGI (MDA-MB-435) of the same molecule?
Answer: 30.6 µM

Question: And the TGI (MDA-N)?
Answer: 30 µM

Question: What about the TGI (MOLT-4 leukemia) of the same molecule?
Answer: 33.5 µM

Question: What about the TGI (NCI-H226 lung) of the same molecule?
Answer: 34.8 µM

Question: And the TGI (NCI-H23 lung)?
Answer: 32.4 µM

Question: What about the TGI (NCI-H460 lung) of the same molecule?
Answer: 31 µM

Question: What about the TGI (NCI-H522 lung) of the same molecule?
Answer: 32.8 µM

Question: And the TGI (NCI/ADR-RES ovarian)?
Answer: 30.6 µM

Question: What about the TGI (OVCAR-3 ovarian) of the same molecule?
Answer: 29.1 µM

Question: What about the TGI (OVCAR-4 ovarian) of the same molecule?
Answer: 27.4 µM

Question: What about the TGI (OVCAR-5 ovarian) of the same molecule?
Answer: 29.4 µM

Question: And the TGI (OVCAR-8 ovarian)?
Answer: 34.6 µM

Question: And the TGI (PC-3 prostate)?
Answer: 29.6 µM

Question: What about the TGI (RPMI-8226 leukemia) of the same molecule?
Answer: 32.6 µM

Question: What about the TGI (RXF 393 renal) of the same molecule?
Answer: 27.1 µM

Question: What about the TGI (SF-268 CNS) of the same molecule?
Answer: 32.7 µM

Question: And the TGI (SF-295 CNS)?
Answer: 28 µM

Question: And the TGI (SF-539 CNS)?
Answer: 35.5 µM

Question: What about the TGI (SK-MEL-2 melanoma) of the same molecule?
Answer: 30 µM

Question: What about the TGI (SK-MEL-28 melanoma) of the same molecule?
Answer: 29.6 µM

Question: What about the TGI (SK-MEL-5 melanoma) of the same molecule?
Answer: 30.9 µM

Question: And the TGI (SK-OV-3 ovarian)?
Answer: 31.2 µM

Question: And the TGI (SN12C renal)?
Answer: 31.7 µM

Question: What about the TGI (SNB-19 CNS) of the same molecule?
Answer: 31.1 µM

Question: What about the TGI (SNB-75 CNS) of the same molecule?
Answer: 26.7 µM

Question: And the TGI (SR leukemia)?
Answer: > 100 µM

Question: And the TGI (SW-620 colon)?
Answer: 35.4 µM

Question: And the TGI (T-47D breast)?
Answer: 29.8 µM

Question: And the TGI (TK-10 renal)?
Answer: 29.8 µM

Question: And the TGI (U251 CNS)?
Answer: 29.4 µM

Question: And the TGI (UACC-257 melanoma)?
Answer: 29.4 µM

Question: And the TGI (UACC-62 melanoma)?
Answer: 23.4 µM

Question: And the TGI (UO-31 renal)?
Answer: 35.8 µM
